The numbers were not newly measured in patent publication US20110287113A1, “TREATMENT OF PSORIASIS” (Insense Limited, priority 2009, published 2011), which cites them from elsewhere.

The conditions of series [1]: under normal conditions.
The conditions of series [2]: at 25° C.
The conditions of series [3]: under normal conditions. The source holds these as a separate data set.

As to `N[C@@H](CCC(=O)N[C@@H](CSN=O)C(=O)NCC(=O)O)C(=O)O` [S-nitrosoglutathione], in series [1], the “time to total (100%) decomposition” value is on record as “hours/days”.
As usually defined, the pKa is the negative logarithm of the acid dissociation constant. In the case of `O=NO` [nitrite], the pKa in series [2] was 3.4.
Consider `N[C@@H](CSN=O)C(=O)O` [S-nitrosocysteine], for which the “time to total (100%) decomposition” value in series [1] was “within minutes”.
On to `[N]=O` [NO, nitric oxide], for which the “maximum solubility in water” value in series [3] is reported as “approximately 1.7 mM”.
